Measured values reported in patent US9375005B2, “5-halogenopyrazole indanyl carboxamides” (BAYER CROPSCIENCE AG, priority 2012, dated 2016).

Experiments:
[1] = test system: Alternaria brassicae; experiment: In vivo preventive test on Alternaria brassicae (leaf spot on radish); settings: dose 500 ppm; radish plants sprayed 24 h before contamination; grading 6 days after contamination vs control plants
Method in brief: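 Radish cotyledons (cv. Pernod Clair, grown at 17 °C) sprayed preventively with compound in acetone/tween/DMSO/water; solvent-only plants as controls. Inoculated 24 h later with A. brassicae spores (50 000 spores/ml, 15-day culture). Percent efficacy versus controls graded 6 days post-inoculation.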

[2] = test system: Pyrenophora teres; experiment: In vivo preventive test on Pyrenophora teres (net blotch on barley); settings: dose 500 ppm; barley plants sprayed 24 h before contamination; grading 14 days after contamination
Method in brief: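 "Plaisant" barley grown at 22° C, sprayed with active ingredient at the 1-leaf stage, then inoculated 24 h later with 12 000 spores/ml of P. teres. Efficacy (%) graded 14 days post-contamination against solvent-only (acetone/tween/DMSO/water) controls.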

[3] = test system: Pyricularia oryzae; format: in vivo; settings: dose 500 ppm; rice plants sprayed 24 h before contamination; grading 6 days after contamination
[4] = test system: Puccinia recondita; experiment: In vivo preventive test on Puccinia recondita (brown rust on wheat); settings: dose 500 ppm; wheat plants sprayed 24 h before contamination; grading 12 days after contamination
Experimental: Plants, used as controls, are treated with the mixture of acetone/tween/DMSO/water not containing the active material. After 24 hours, the plants are contaminated by spraying the leaves with an aqueous suspension of Puccinia recondita spores (100 000 spores per ml). […] Grading (% of efficacy) is carried out 12 days after the contamination, in comparison with the control plants.

[5] = test system: Uromyces appendiculatus; experiment: In vivo preventive test on Uromyces appendiculatus (bean rust); settings: dose 500 ppm; bean plants sprayed 24 h before contamination; grading 11 days after contamination
Method in brief: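 Saxa bean plants grown at 24° C were sprayed at the 2-leaf stage (9 cm) with compound in acetone/tween/DMSO/water; controls got solvent mix only. Leaves inoculated 24 h later with U. appendiculatus spores (150 000 spores/ml). Efficacy (%) graded 11 days post-inoculation versus controls.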

[6] = test system: Phakopsora pachyrhizi; experiment: In vivo preventive Phakopsora test (soybeans); settings: concentration 10 ppm of active ingredient; soybean plants; evaluated 7 days after inoculation
[7] = Measurement of log P values by HPLC on reversed phase columns (EEC directive 79/831 Annex V.A8); format: physicochemical; settings: method marked [a]
[8] = test system: Botrytis cinerea; experiment: In vivo preventive test on Botrytis cinerea (grey mould); settings: dose 500 ppm; gherkin plants sprayed 24 h before contamination; grading 4 to 5 days after contamination
Experimental: Gherkin plants (“Vert petit de Paris” variety), sown in starter cups on a 50/50 peat soil-pozzolana substrate and grown at 24° C., are treated at the Z11 cotyledon stage by spraying with the active ingredient prepared as described above. Plants, used as controls, are treated with the mixture of acetone/tween/DMSO/water not containing the active material. After 24 hours, the plants are contaminated by spraying the cotyledons with an aqueous suspension of cryopreserved Botrytis cinerea spores (50 000 spores per ml). The spores are suspended in a nutrient solution composed of 10 g/L of PDB, 50 g/L of D-Fructose, 2 g/L of NH4NO3 and 1 g/L of KH2PO4. […] Grading (% of efficacy) is carried out 4 to 5 days after the contamination, in comparison with the control plants.

SMILES	Eff. % [1]	Eff. % [2]	Eff. % [3]	Eff. % [4]	Eff. % [5]	Eff. % [6]	logP [7]	Eff. % [8]
CC1Cc2c(NC(=O)c3c(C(F)F)nn(C)c3Cl)cccc2C1(C)C (centres unmarked) [Example 46]	86%	75%	97%	100%	100%	94%	4.19[a]	
CC1CC2(CC2)c2cccc(NC(=O)c3c(C(F)F)nn(C)c3Cl)c21 (centres unmarked) [Example 51]		70%		98%	100%	93%	3.83[a]	94%
Cn1nc(C(F)F)c(C(=O)Nc2cccc3c2CC(Cc2ccccc2)C3)c1Cl (centres unmarked) [Example 39]	79%		86%		100%		4.41[a]	
CC1CC(C)c2c(NC(=O)c3c(C(F)F)nn(C)c3Cl)cccc21 (centres unmarked) [Example 44]				100%	100%	98%		
